In the assay the test system is BDF1 mice, B16 melanoma ip, median survival T/C. Put plainly: NCI In Vivo Anticancer Drug Screen. Data for tumor model B16 Melanoma (intraperitoneal) in B6D2F1 (BDF1) mice. Conditions: endpoint: median survival time, higher = longer survival. The method, boiled down: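 The ratio T/C compares compound-treated mice with vehicle-treated controls, using survival or tumor size as the endpoint in a transplantable tumor model.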

Setting [1] is: dose: 100.0 mg/kg/injection, schedule: Q01DX009 (ip), vehicle: Klucel (hydroxypropylcellulose) (HPC).
Where [2] appears, read: dose: 200.0 mg/kg/injection, schedule: Q01DX009 (ip), vehicle: Klucel (hydroxypropylcellulose) (HPC).
Setting [3] is: dose: 100.0 mg/kg/injection, schedule: Q01DX009 (ip), vehicle: saline.
Where [4] appears, read: dose: 200.0 mg/kg/injection, schedule: Q01DX009 (ip), vehicle: saline.
The mark [5] stands for this setting: dose: 400.0 mg/kg/injection, schedule: Q01DX009 (ip), vehicle: saline.
[6] abbreviates: dose: 3.12 mg/kg/injection, schedule: Q01DX009 (ip), vehicle: Klucel (hydroxypropylcellulose) (HPC).
[7] abbreviates: dose: 6.25 mg/kg/injection, schedule: Q01DX009 (ip), vehicle: Klucel (hydroxypropylcellulose) (HPC).
Setting [8] is: dose: 12.5 mg/kg/injection, schedule: Q01DX009 (ip), vehicle: Klucel (hydroxypropylcellulose) (HPC).
Setting [9] is: dose: 25.0 mg/kg/injection, schedule: Q01DX009 (ip), vehicle: Klucel (hydroxypropylcellulose) (HPC).

Where “and” joins values, the source holds several entries; their conditions need not be identical. Equal entries are not always repeated. Inconclusive results and toxic doses are left out.

On to `O=C(O)c1ccc2c(c1)C(=O)c1ccccc1S2(=O)=O`, for which the T/C runs as follows: under setting [1], 92 % of control; under setting [2], 93 % of control.

Consider `CC[C@](C)(O)C(=O)O[C@H]1C(=O)O[C@@H]2C[C@H]3C(C)=CC(=O)[C@@H](O)[C@]3(C)[C@H]3[C@@]4(O)OC[C@]32[C@@H]1[C@@H](C)[C@H]4O`, for which the T/C runs as follows: (dose: 0.13 mg/kg/injection, schedule: Q01DX009 (ip), vehicle: Klucel (hydroxypropylcellulose) (HPC)) 110 % of control; (dose: 0.13 mg/kg/injection, schedule: Q01DX009 (ip), vehicle: steriod suspending solution) 108 % of control; (dose: 0.25 mg/kg/injection, schedule: Q01DX009 (ip), vehicle: Klucel (hydroxypropylcellulose) (HPC)) 107 % of control; (dose: 0.25 mg/kg/injection, schedule: Q01DX009 (ip), vehicle: saline) 121 % of control; (dose: 0.25 mg/kg/injection, schedule: Q01DX009 (ip), vehicle: steriod suspending solution) 122 % of control; (dose: 0.5 mg/kg/injection, schedule: Q01DX009 (ip), vehicle: Klucel (hydroxypropylcellulose) (HPC)) 114 % of control. Further, the T/C reads like this: (dose: 0.5 mg/kg/injection, schedule: Q01DX009 (ip), vehicle: saline) 154 % of control; (dose: 1.0 mg/kg/injection, schedule: Q01DX009 (ip), vehicle: steriod suspending solution) 114 % of control; (dose: 125.0 micrograms/kg/injection, schedule: Q01DX009 (ip), vehicle: saline with Tween-80) 121 % of control; (dose: 250.0 micrograms/kg/injection, schedule: Q01DX009 (ip), vehicle: saline with Tween-80) 112 % of control; (dose: 500.0 micrograms/kg/injection, schedule: Q01DX009 (ip), vehicle: saline with Tween-80) 121 % of control.

Turning to `COc1cc(-c2ccc(N=Nc3cc(S(=O)(=O)O)c4ccccc4c3O)c(OC)c2)ccc1N=Nc1cc(S(=O)(=O)O)c2ccccc2c1O`, the T/C runs as follows: under setting [3], 102 % of control; under setting [4], 89 % of control; under setting [5], 93 % of control.

Take `CCCCCCCCCCCCNC(=O)Nc1ccc(CC)cc1`: the T/C was 92 % of control under setting [1]; 100 % of control under setting [2]; 100 % of control (dose: 400.0 mg/kg/injection, schedule: Q01DX009 (ip), vehicle: Klucel (hydroxypropylcellulose) (HPC)).

Consider `CC(=O)OCCN1CC1`, for which the T/C (dose: 3.12 mg/kg/injection, schedule: Q01DX009 (ip), vehicle: saline) is 109 % of control; the T/C (dose: 6.25 mg/kg/injection, schedule: Q01DX009 (ip), vehicle: saline) was 103 % of control; the T/C (dose: 12.5 mg/kg/injection, schedule: Q01DX009 (ip), vehicle: saline) is 100 % of control; the T/C (dose: 25.0 mg/kg/injection, schedule: Q01DX009 (ip), vehicle: saline) is 95 % of control.

Take `COC(=O)Nc1cn2cc(C(=O)c3cccs3)ccc2n1`: the T/C was 93 % of control (dose: 1.56 mg/kg/injection, schedule: Q01DX009 (ip), vehicle: Klucel (hydroxypropylcellulose) (HPC)); 98 % of control under setting [6]; 104 % of control under setting [7]; 113 % of control under setting [8]; 123 % of control under setting [9].

On to `NC(N)=NCCCOc1ccccc1`, for which the T/C reads like this: under setting [6], 102 % of control; under setting [7], 108 % of control; under setting [8], 113 % of control; under setting [9], 100 % of control; (dose: 50.0 mg/kg/injection, schedule: Q01DX009 (ip), vehicle: Klucel (hydroxypropylcellulose) (HPC)) 100 % of control.

For `COc1cccc2c1C(=O)c1c(O)c3c(c(O)c1C2=O)CC(O)(C(C)=O)CC3OC1CC(N)C(O)C(C)O1` (stereo not given), the T/C reads like this: (dose: 2.5 mg/kg/injection, schedule: Q01DX007 (ip), vehicle: water) 154 % of control; (dose: 2.5 mg/kg/injection, schedule: Q01DX009 (ip), vehicle: water) 163 % of control; (dose: 5.0 mg/kg/injection, schedule: Q01DX007 (ip), vehicle: water) 154 % of control; (dose: 5.0 mg/kg/injection, schedule: Q01DX009 (ip), vehicle: water) 190 % of control; (dose: 5.8 mg/kg/injection, schedule: Q01DX009 (ip), vehicle: saline) 258 % of control; (dose: 10.0 mg/kg/injection, schedule: Q01DX007 (ip), vehicle: water) 163 % of control. In addition, the T/C (dose: 10.0 mg/kg/injection, schedule: Q01DX009 (ip), vehicle: water) was 218 % of control; the T/C (dose: 11.7 mg/kg/injection, schedule: Q01DX009 (ip), vehicle: saline) was 122 % of control and 267 % of control; the T/C (dose: 20.0 mg/kg/injection, schedule: Q01DX007 (ip), vehicle: water) is 339 % of control; the T/C (dose: 20.0 mg/kg/injection, schedule: Q01DX009 (ip), vehicle: water) is 231 % of control; the T/C (dose: 23.4 mg/kg/injection, schedule: Q01DX009 (ip), vehicle: saline) was 116 % of control and 267 % of control; the T/C (dose: 23.4 mg/kg/injection, schedule: Q04DX003 (ip), vehicle: saline) is 212 % of control. Also, the T/C reads like this: (dose: 46.8 mg/kg/injection, schedule: Q04DX003 (ip), vehicle: saline) 275 % of control; (dose: 93.6 mg/kg/injection, schedule: Q04DX003 (ip), vehicle: saline) 275 % of control.

For the compound `C[C@@H](CN1CC(=O)NC(=O)C1)N1CC(=O)NC(=O)C1`, the T/C is, setting by setting: (dose: 8.0 mg/kg/injection, schedule: Q01DX009 (ip), vehicle: saline with Tween-80) 100 % of control; (dose: 16.0 mg/kg/injection, schedule: Q01DX009 (ip), vehicle: saline with Tween-80) 117 % of control; (dose: 16.0 mg/kg/injection, schedule: Q01DX009 (ip), vehicle: water) 107 % of control and 122 % of control; (dose: 25.0 mg/kg/injection, schedule: Q04DX003 (ip), vehicle: water) 101 % of control and 107 % of control; (dose: 32.0 mg/kg/injection, schedule: Q01DX009 (ip), vehicle: saline with Tween-80) 112 % of control; (dose: 32.0 mg/kg/injection, schedule: Q01DX009 (ip), vehicle: water) 111 % of control. Moreover, the T/C reads like this: (dose: 50.0 mg/kg/injection, schedule: Q04DX003 (ip), vehicle: water) 103 % of control; (dose: 100.0 mg/kg/injection, schedule: Q04DX003 (ip), vehicle: water) 104 % of control and 112 % of control; (dose: 128.0 mg/kg/injection, schedule: Q01DX009 (ip), vehicle: water) 113 % of control; (dose: 200.0 mg/kg/injection, schedule: Q04DX003 (ip), vehicle: water) 103 % of control; (dose: 256.0 mg/kg/injection, schedule: Q01DX009 (ip), vehicle: water) 87 % of control; (dose: 400.0 mg/kg/injection, schedule: Q04DX003 (ip), vehicle: water) 117 % of control. Moreover, where the note is “dose: 800.0 mg/kg/injection, schedule: Q04DX003 (ip), vehicle: water”, the T/C was 88 % of control.

With `C1CCC(OB2OB(OC3CCCCC3)OB(OC3CCCCC3)O2)CC1`, the T/C runs as follows: (dose: 50.0 mg/kg/injection, schedule: Q01DX009 (ip), vehicle: other) 103 % of control; (dose: 100.0 mg/kg/injection, schedule: Q01DX009 (ip), vehicle: other) 93 % of control; (dose: 200.0 mg/kg/injection, schedule: Q01DX009 (ip), vehicle: other) 102 % of control.

Take `O=C([O-])C[n+]1ccccc1`: the T/C is 108 % of control under setting [3] and 103 % of control under setting [4].

As to `NCC1OC(OC2C(CO)OC(OC3C(O)C(N)CC(N)C3OC3OC(CO)C(O)C(O)C3N)C2O)C(N)C(O)C1O` (stereo not given), the T/C by setting is: (dose: 50.0 mg/kg/injection, schedule: Q01DX009 (ip), vehicle: saline) 114 % of control; under setting [3], 108 % of control; under setting [4], 111 % of control; under setting [5], 112 % of control.

In the case of `CC[C@@]1(O)C(=O)OCc2c1cc1n(c2=O)Cc2cc3cc(O)ccc3nc2-1`, the T/C is 157 % of control (dose: 0.2 mg/kg/injection, schedule: Q01DX009 (ip), vehicle: other); 151 % of control (dose: 0.39 mg/kg/injection, schedule: Q01DX009 (ip), vehicle: other); 179 % of control (dose: 0.79 mg/kg/injection, schedule: Q01DX009 (ip), vehicle: other); 184 % of control (dose: 1.57 mg/kg/injection, schedule: Q01DX009 (ip), vehicle: other).

As to `CN(C)N=Nc1ccc(NC(N)=O)cc1`, the T/C (dose: 18.75 mg/kg/injection, schedule: Q01DX009 (ip), vehicle: Klucel (hydroxypropylcellulose) (HPC)) was 123 % of control and the T/C (dose: 37.5 mg/kg/injection, schedule: Q01DX009 (ip), vehicle: Klucel (hydroxypropylcellulose) (HPC)) is 86 % of control.
